The values below come from a melting point compilation (Tetko et al.).

As to `COC(=O)c1cccnc1N`, the melting point (commonly the temperature, or range, at which the solid turns liquid) was 84 to 86 °C.
In turn, `COP(=S)(OC)Oc1ccc(C#N)cc1` registered a melting point of 14.5 °C.
`c1ccc(Oc2ccc(Oc3ccccc3)cc2)cc1` yielded a melting point of 73 to 77 °C.
In turn, `CC(=O)OC1=C(C(C)C)C(=O)C2=C(C1=O)C1(C)CCCC(C)(C)C1C(OC(C)=O)C2OC(C)=O` (stereo unspecified) showed a melting point of 89 °C.
The molecule `CC(O)C(C)C(C)(C)C` (stereo unspecified) gave a melting point of 27 °C.
Molecule `Cc1cc(Cl)ncc1N` gave a melting point of 69 to 73 °C.
For `OCc1ccc(F)cc1` the value was 23 °C; for `Nc1c2c(nc3ccccc13)CCCC2`, 184 °C.
Take `Fc1cc(Br)c(I)c(Br)c1`: the melting point is 134 to 137 °C.
`N[C@H](CCCCP(=O)(O)O)C(=O)O` registered a melting point of 215 to 220 °C.
With `NC(=S)Nc1ccccc1[N+](=O)[O-]` the figure was 136 to 137 °C.
For `CCCCCCCc1ccc(-c2ccccc2)cc1` the value was 27 °C.
With `Cc1ccc2cccc(Cl)c2n1` the figure was 67 °C.
For `O=C(c1ccccc1)N(CC(=Nc1ccccc1)Nc1ccccc1)c1ccccc1`, the melting point worked out at 142 °C.
With `C=CC1(C)C=C2CCC3C(C)(C(=O)O)CCCC3(C)C2CC1` (stereo unspecified) the figure was 218 °C.
`Cc1cc([N+](=O)[O-])ccc1I` had a melting point of 102 °C.
With `O=Cc1ccc(-c2ccc(F)c(C(F)(F)F)c2)o1` the figure was 89 to 91 °C; with `CCCN(CCC)c1c([N+](=O)[O-])cc(S(N)(=O)=O)cc1[N+](=O)[O-]`, 141 °C.
For `O=S(=O)(Cl)c1cc(OCC(F)(F)F)ccc1OCC(F)(F)F` the value was 47 to 50 °C; for `COc1ccc(-n2c(=S)[nH]c(=O)c3cccnc32)cc1`, 261 to 263 °C; for `O=C(N[C@H](Cc1ccccc1F)C(=O)O)OCC1c2ccccc2-c2ccccc21`, 145 °C.
In turn, `Clc1cc(Cl)c2ccccc2c1` yielded a melting point of 62.3 °C.
With `COc1c(C)c(C)c(OC)c2c1CC2Cl` (stereo unspecified) the figure was 113 °C; with `N#Cc1c(Cl)cccc1Oc1ccc(S(=O)(=O)Cl)cc1`, 137 to 139 °C; with `CC(C(=O)O)c1ccc(C(=O)c2cccs2)cc1` (stereo unspecified), 124 °C.
With `Nc1ccc2c(n1)[nH]c1ccccc12` the figure was 202 °C; with `O=CNNC=O`, 156 °C; with `CCCC(NC(=O)C(C)N)C(=O)O` (mixture of isomers), 240 to 242 °C.
For `O=Cc1cccc(-n2cccn2)c1` the value was 38 to 39 °C; for `COC(=O)c1sccc1NN`, 69 to 71 °C; for `Cn1cc(Br)c(C=O)n1`, 71 to 72 °C.
As to `C/C=C/c1nc(O)n(-c2ccccc2)n1`, the melting point was 188 °C.
For `COC1(C)CC(c2ccccc2)c2c(c3ccccc3oc2=O)O1` (stereo unspecified) the value was 166 °C; for `Cc1cc(C)cc(OCC2CNC(=O)O2)c1` (stereo unspecified), 122 °C; for `CCCCCCCCCCCc1ccccc1`, -5 °C.
On to `CCCC1C(=O)C2(C)CCC1C2(C)C` (stereo unspecified), for which the melting point came to 128 °C.
For `C/C(=N\Nc1ccccc1)c1nc2c(ccc3ccccc32)nc1C`, the melting point is 209 °C.
For `Cc1ccc2cccc(C)c2n1` the value was 27 °C; for `Cc1ccc(-n2c(-c3cccnc3)noc2=S)cc1`, 159 °C; for `CC(=O)O[Si](OC(C)=O)(OC(C)=O)OC(C)=O`, 110 °C.
Turning to `O=C(O)c1ccc(-c2ccsc2)cc1`, the melting point lay within 282 to 283 °C.
For `O=C(O)CCCCCCC(=O)c1ccccc1` the value was 81 °C.
With `Cc1ccnc(Cl)c1N` the figure was 66 °C.
For `OC1CCOc2ccccc21` (stereo unspecified) the value was 41 to 45 °C; for `N#Cc1ccc2c(c1)COC2=O`, 201 to 205 °C; for `CSc1cc2c(c3c1CCc1ccccc1-3)c(=O)n(-c1ccccc1)n2C`, 181 °C.
The molecule `NC(Cc1ccc(O)c(O)c1)C(=O)O` (stereo unspecified) yielded a melting point of 295 °C.
`Clc1cccc2c(Cl)cccc12` showed a melting point of 107 °C.
`Cc1ccc(N2CSc3nnc(-c4cccc([N+](=O)[O-])c4)n3C2)cc1`: the melting point is above 300 °C.
For `Cc1ccc(S(=O)(=O)N2C(C)C2c2ccccc2)cc1` (stereo unspecified), the melting point lay in the range of 188 to 190 °C.
In turn, `O=C(OCc1ccccc1)c1ccc(O)cc1` showed a melting point of 112 °C.
For the molecule `O=C(O)c1cc(Br)cc2c1OCC2`, the melting point stood at 230 °C.
For `O=C1OC(=O)c2cc([N+](=O)[O-])cc3cccc1c23` the value was 247 to 254 °C.
With `CC12CCC(C3(CCC(=O)O3)C1=O)C2(C)C` (stereo unspecified) the figure was 207 °C; with `OCC1OC(OCC2OC(O)C(O)C(O)C2O)C(O)C(O)C1O` (stereo unspecified), 86 °C; with `Nc1c(Cl)cc(Cl)cc1I`, 80 °C.
For `O=CNC(c1ccccc1)C(O)c1ccccc1` (stereo unspecified) the value was 205 °C.
Take `CC1(C)C=CC=C(C(=O)O)C=C1`: the melting point came to 88.5 °C.
`CC1=CCC(C(C)C)=CC1` yielded a melting point of -10 °C.
Consider `Cc1n[nH]c(C)c1Cl`, for which the melting point is 118 °C.
`CC(=O)N(Nc1ccc(-c2ccc([N+](=O)[O-])cc2)cc1)c1ccccc1` gave a melting point of 161 °C.
As to `CC12CCCC1C1CCC3CC(=O)CCC3(C)C1CC2` (stereo unspecified), the melting point turned out to be 102 °C.
For `CC(Cc1ccccc1)(C(=O)O)C(=O)O` the value was 132 °C; for `Cc1nc(N)ccc1C#N`, 155 to 156 °C.
For `N#CCC(=O)Nc1ccccc1` the value was 198 to 202 °C; for `Cc1cccc2c1-c1nc3ccccc3nc1-2`, 134 to 136 °C; for `Cc1cc(C(=O)O)cc(O)n1`, 240 °C.
The molecule `CC(=O)Nc1ccc([N+](=O)[O-])c(C(F)(F)F)c1` came in with a melting point of 108 to 109 °C.
For `CCN(CC)C(=O)C(C)Oc1cccc2ccccc12` (stereo unspecified) the value was 75 °C; for `CC(=O)c1cc(Cl)c(N)c(Cl)c1`, 161 to 165 °C.
For `COc1ccc(C(=O)Cc2c(CCN(C)C)cc3c(c2OC)OCO3)c(C(=O)O)c1OC` the value was 138 °C; for `O=C1CCC(=O)N1c1ccccc1`, 156 °C.
Take `CCC1C(C#N)=C(N)Oc2c1c(=O)oc1ccccc21` (stereo unspecified): the melting point fell in the range of 233 to 237 °C.
For `CC1(C)C2CCC1(C)C(/N=C(\C(=O)c1ccccc1)c1ccccc1)C2/N=C(\C(=O)c1ccccc1)c1ccccc1` (stereo unspecified) the value was 190 °C.
For `CC(F)(Cl)CCl` (stereo unspecified) the value was -91.7 °C; for `NC(Cc1n[nH]c2ccccc12)C(=O)O` (stereo unspecified), 240 °C.
With `COc1ccc(C2Nn3c(nnc3-c3cccc([N+](=O)[O-])c3)S2)cc1` (stereo unspecified) the figure was 206 °C; with `C#CCCCCCCC(=O)O`, 19 °C.
The molecule `OC(c1ccccc1)(c1ccccc1)[C@@H](c1ccccc1)N1CCCCC1` yielded a melting point of 158 °C.
Regarding `C/C(=N\c1ccc(C(=O)O)cc1)c1c(O)c2ccccc2n(-c2ccccc2)c1=O`, the melting point lay in the range of 236 to 238 °C.
Molecule `COc1ccccc1C1CNCCN1` (stereo unspecified) had a melting point of 80 °C.
For `CC(CO)(CO)CO` the value was 204 °C.
For `O=Cc1c[nH]c2cccc(Br)c12` the value was 179 to 180 °C.
For `O=C(C=Cc1ccc(-c2cccc([N+](=O)[O-])c2)o1)c1ccccc1` the value was 146 to 147 °C; for `CC(C)C=CC(=O)O`, 35 °C; for `CN(C)c1ccc(N=c2cc(-c3ccccc3)cc(-c3ccccc3)s2)cc1`, 148 °C.
`CC1CCC(C)S1` (stereo unspecified) showed a melting point of -89 °C.
The molecule `CCOC(=O)C(C#N)=Cc1ccccc1` came in with a melting point of 51 °C.
With `CC(=O)Nc1ccc(-c2ccc(N(Nc3ccccc3)C(C)=O)cc2)cc1` the figure was 233 °C; with `O=C(O)CCc1ccc(Cl)cc1`, 119 °C.
The molecule `CC(C)(C)OC(=O)NC1(C(=O)O)CCCCC1` had a melting point of 177 °C.
The molecule `CN(C(=O)N(C)c1ccccc1)c1ccccc1` displayed a melting point of 122 °C.
For `CCCCCCF` the value was -103 °C; for `C#CC1(O)CCC2C3CCC4=CC(=O)CCC4=C3C=CC21C` (stereo unspecified), 169 °C.
For `ClCc1ccc(Br)cc1` the value was 50 °C.
With `ClC1Cc2cc3c(cc21)OCO3` (stereo unspecified) the figure was 55 °C; with `CCOC(=O)C(=O)C=P(c1ccccc1)(c1ccccc1)c1ccccc1`, 176 °C; with `O=[N+]([O-])c1ccc(NN=C(Cc2ccccc2)C(Cc2ccccc2)=NNc2ccc([N+](=O)[O-])cc2)cc1`, 276 °C.
In turn, `BrCOCBr` gave a melting point of -34 °C.
With `CC1CCC(C)(C(=O)COC(=O)c2ccccc2)C1(C)C` (stereo unspecified) the figure was 82 °C; with `CC(=O)/C=C1\NC(=O)c2ccccc21`, 108 °C.
For `CC(C)(C)c1cc(O)ccc1O`, the melting point was determined as 128 °C.
The molecule `O=S(=O)(Cl)c1cc2ccccc2o1` registered a melting point of 79 to 81 °C.
With `Cc1cc(C(F)(F)F)n2nc(N)c(/N=N/c3cccc(C(F)(F)F)c3)c2n1` the figure was 171 °C.
The molecule `Cc1cc([N+](=O)[O-])ccc1F` displayed a melting point of 39 °C.
`O=C(Cl)c1ccc(OC2CCOCC2)cc1`: the melting point is 37.5 to 39 °C.
For `Fc1c(F)c(F)c(Br)c(Br)c1F` the value was 12 °C.
With `CCP(=S)(CC)CC` the figure was 95 °C; with `Cc1ccc2c(O)c(-c3ccccc3)c(=O)[nH]c2c1`, 300 °C; with `NC(=O)c1cc(C(F)(F)F)cc(C(F)(F)F)c1`, 162 °C.
With `CC12CCC(O)C=C1CCC1C2CCC2(C)C(c3ccc(=O)oc3)CCC12O` (stereo unspecified) the figure was 235 °C.
